Laboratory results from the NIST ThermoML archive (doi:10.1016/j.jct.2005.07.003).
“And” between values parts separate entries of the source, which are not always exact repeats. Identical values can stand only once. Numbers after ± are expanded uncertainties.

Assay: activity coefficient (dimensionless); of the first substance listed, at infinite dilution; xn = mol fraction of the nth substance listed
Settings: 101 kPa, Liquid, Chromatography, x1 = 0

activity coefficient (288.15 K) | activity coefficient (298.15 K) | activity coefficient (313.15 K) | Structure (SMILES)
14 ± 1.5 | 12.8 and 12.9 | 11.9 and 11.8 | CCCCCC [hexane] + CCCCCCCC[n+]1ccn(C)c1.COCCOCCOS(=O)(=O)[O-]
10.3 and 10.8 | 10.5 and 10.1 | 8.51 and 9.33 | C=CCCCCC [1-heptene] + CCCCCCCC[n+]1ccn(C)c1.COCCOCCOS(=O)(=O)[O-]
5.69 and 5.38 | 4.92 and 5.11 | 4.7 and 4.67 | C#CCCCCC [1-heptyne] + CCCCCCCC[n+]1ccn(C)c1.COCCOCCOS(=O)(=O)[O-]
13.7 and 14 | 13.1 and 13.2 | 12 and 11.4 | C=CCCCCCC [oct-1-ene] + CCCCCCCC[n+]1ccn(C)c1.COCCOCCOS(=O)(=O)[O-]
17.9 and 17.4 | 16.4 and 16 | 13.5 and 13.3 | CCCCCCC [heptane] + CCCCCCCC[n+]1ccn(C)c1.COCCOCCOS(=O)(=O)[O-]
11.2 and 10.3 | – | 8.74 and 8.65 | C1CCCCCCC1 [cyclooctane] + CCCCCCCC[n+]1ccn(C)c1.COCCOCCOS(=O)(=O)[O-]
22.6 and 22.2 | 21.1 and 19.7 | 16.4 ± 1.7 | CCCCCCCC [octane] + CCCCCCCC[n+]1ccn(C)c1.COCCOCCOS(=O)(=O)[O-]
12.6 and 11.6 | 10.6 and 10.3 | 10 and 9.5 | CCCCC [pentane] + CCCCCCCC[n+]1ccn(C)c1.COCCOCCOS(=O)(=O)[O-]
0.37 and 0.44 | 0.38 ± 0.05 | 0.36 and 0.38 | CO [methanol] + CCCCCCCC[n+]1ccn(C)c1.COCCOCCOS(=O)(=O)[O-]
1.33 ± 0.14 | 1.33 and 1.46 | 1.37 and 1.35 | c1ccccc1 [benzene] + CCCCCCCC[n+]1ccn(C)c1.COCCOCCOS(=O)(=O)[O-]
8.61 and 8.47 | 8.14 and 8.33 | 7.47 and 7.74 | C=CCCCC [hex-1-ene] + CCCCCCCC[n+]1ccn(C)c1.COCCOCCOS(=O)(=O)[O-]
6.4 and 6.14 | 5.1 and 5.86 | 5.24 and 5.16 | C1CCCC1 [cyclopentane] + CCCCCCCC[n+]1ccn(C)c1.COCCOCCOS(=O)(=O)[O-]
9.65 and 10.1 | 9.02 and 8.83 | 7.53 and 7.45 | C1CCCCCC1 [cycloheptane] + CCCCCCCC[n+]1ccn(C)c1.COCCOCCOS(=O)(=O)[O-]
8.52 and 8.34 | 7.86 ± 0.83 | 6.83 and 6.79 | C1CCCCC1 [cyclohexane] + CCCCCCCC[n+]1ccn(C)c1.COCCOCCOS(=O)(=O)[O-]
